Measurements as given in BigSolDB 2.1.

CC(=O)Nc1ccc(O)cc1
Conditions	solubility (mole fraction)
in ethanol, 284.49 K	0.0444
in ethanol, 288.38 K	0.0471
in ethanol, 293.54 K	0.0508
in ethanol, 295.69 K	0.0539
in isopropanol, 273.5 K	0.0256
in isopropanol, 289.99 K	0.0372
in isopropanol, 302.5 K	0.0473
in n-octanol, 262.78 K	0.0057
in n-octanol, 275.42 K	0.0082
in n-octanol, 285.72 K	0.0104
in n-octanol, 301.15 K	0.0151

CN=C(NC#N)NCCSCc1nc[nH]c1C
solubility (mole fraction)
Conditions	281.04 K	285.25 K	289.65 K	292.46 K	296.7 K	297.26 K	306.76 K	309.1 K	311.34 K
in ethanol	–	–	–	–	–	0.005	0.0081	0.0091	0.0101
in methanol	0.0082	0.0098	0.0119	0.0138	0.0166	–	–	–	–

CC(=O)Oc1ccccc1C(=O)O
Conditions	solubility (mole fraction)
in ethanol, 274.95 K	0.0246
in ethanol, 292.45 K	0.0487
in isopropanol, 274.9 K	0.0163
in isopropanol, 281.7 K	0.0223
in isopropanol, 283.75 K	0.0245
in n-octanol, 272.14 K	0.01
in n-octanol, 281.45 K	0.0152
in n-octanol, 291.53 K	0.0235
in n-octanol, 307.12 K	0.0434
